Experimental data taken from patent US6900021B1, “Microfluidic system and methods of use” (The University of Alberta, priority 1997, dated 2005).

What was measured:
[1] = test system: human lymphocytes; test: Calcium influx assay (stop flow, Fluo-3 AM fluorescence) with activator; type: cell-based; details: single lymphocyte
Text: Calcium influx is involved in major cell functions and responses of lymphocytes. In this assay, the calcium ion influx into the lymphocytes is induced by a calcium releasing agent, calcimycin (A23187, calcium ionophore). The rise in the concentration of free intracellular calcium ions results in an increase in fluorescent signal from cells pretreated with a fluorescing agent. The kinetic results of calcium influx may be studied with the stop flow method in the microfluidic device.
There are several steps in the study of the process of calcium influx. First, an activator, calcimycin (A23187 calcium ionophore) and the calcium ion complex must adsorb on the cell surface. Second, the complex has to diffuse through the cell membrane. Third, once inside the cytosol, dissociation between the A23187 and calcium ion has to take place. Finally, a fluorescing agent, FLUO-3 AM, complexes with the released calcium and produces emitted light that can be detected (fluorescence).
For measurement of calcium influx, a calcium-specific fluorophore, Fluo-3 AM (Molecular Proves), was preloaded into purified human lymphocytes as acetoxymethyl (AM) ester. […]
A fluorescence microscope equipped with a 25× objective and a CCD camera was positioned over the detection zone, point “B” in FIG. 8, allowed the observation of cells as they passed the detection zone. […]

[2] = test system: canine erythrocytes; test: Lysis of canine erythrocytes by SDS in the microchip; type: cell-based, dog
Experimental: A phosphate buffer, 40 mM each of NA2HPO4 and KH2PO4 (BDH analytical grade) was adjusted to pH 7.4 with either NaOH or HCl and used as an isotonic buffer for canine erythrocytes. (The plasma concentrations of […] in canine plasma are 94 and 6 mM. respectively. (8,9) Assuming a monoanion as the counterion gives as osmolarity of 200 mM, equal to that of the buffer prepared.) A hypotonic solvent, deionized water, was used to prepare yeast or E. coli cell suspensions. Sodium dodecyl sulfate (SDS, Serva, analytical grade) was prepared at 3 mM (0.1 wt %) in deionized water. Other chemicals were reagent grade and were used without further purification.
Red blood cells of a healthy dog were obtained from Heritage Medical Research Centre (Edmonton, AB, Canada). Blood samples were collected using EDTA as the anticoagulant. These were centrifuged for separation into various blood components. After removal of the plasma and buffy coat, the erythrocytes were isolated as a cell pellet. A citrate-phosphate-dextrose (CPD) solution, (9), used to store human whole blood for enhancement of the poststorage viability of red cells, (10), was adapted for handling and storing the canine cells by addition of KCl and NaCl as well. The solutions contained 2.5 mM dextrose, 1.6 mM sodium citrate, 0.28 mM citric acid, 0.15 mM Na2HPO4, 94 mM NaCl, and 6.0 mM KCl. An erythrocyte suspension of 5% hematocrit was used. The cells were washed several times with the isotonic phosphate buffer to remove the storage buffer, using a Sanyo MSE MicroCentaur centrifuge.
The visual cell lysis experiment was performed in the COPI device (FIG. 5A). The B reservoir, which contained erythrocytes and the S reservoir, containing 3 mM SDS, were both at +150 V, while the SW reservoir was at ground. The potential at BW was floating.
For the cell lysis experiment using PMT detection, the PCRD2 device (FIG. 5B) was used. Cells were introduced into the S reservoir to which 400 V was applied, versus ground on the SW reservoir. A 3 mM SDS solution was introduced into the B reservoir. […]

[3] = molecular target: T1, E-selectin (Homo sapiens, UniProt P16581); test: Cell rolling assay with undiluted human blood, E-selectin coated device; type: cell-based; details: heparinated whole human blood; HCRIVc device
T1 sequence (P16581 22-610): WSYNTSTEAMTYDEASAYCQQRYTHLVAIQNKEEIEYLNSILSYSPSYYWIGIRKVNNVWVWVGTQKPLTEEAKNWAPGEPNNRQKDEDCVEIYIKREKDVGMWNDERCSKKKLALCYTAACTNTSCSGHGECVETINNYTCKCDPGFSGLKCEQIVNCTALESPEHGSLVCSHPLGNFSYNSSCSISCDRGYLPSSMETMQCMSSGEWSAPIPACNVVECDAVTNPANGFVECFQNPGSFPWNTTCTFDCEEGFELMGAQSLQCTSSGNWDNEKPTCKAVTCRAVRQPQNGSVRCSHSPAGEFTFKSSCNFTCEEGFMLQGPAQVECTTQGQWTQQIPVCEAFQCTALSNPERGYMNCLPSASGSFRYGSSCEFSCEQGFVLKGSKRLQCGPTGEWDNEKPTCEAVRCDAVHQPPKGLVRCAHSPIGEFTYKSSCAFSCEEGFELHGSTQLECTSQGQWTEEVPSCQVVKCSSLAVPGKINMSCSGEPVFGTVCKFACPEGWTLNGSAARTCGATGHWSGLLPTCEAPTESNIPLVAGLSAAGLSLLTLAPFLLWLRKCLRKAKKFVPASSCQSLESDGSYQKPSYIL
Experimental: (§1) This device was previously coated either P-selectin or E-selectin as described above. 50 μl heparinated whole human blood (1 mg/ml heparin was added to the blood) was introduced into the first reservoir of the “Y” shape device shown in FIG. 12. The human blood was moved from the reservoir into the channel by a syringe pump at optimum flow rate for the device (see Table II) and the main flow channel, about 1-2 cm from intersection of “Y”, was observed under the microscope for 15 minutes.
(§2) 50 μl of a mixture of inhibitor and heparinated blood was placed into the second reservoir and introduced into the channel for 3-10 minutes.

[4] = molecular target: T1, E-selectin; test: Cell rolling of neutrophils on E-selectin coated microchip; type: cell-based; details: concentration not given
[5] = molecular target: T2, P-selectin (Homo sapiens, UniProt P16109); test: Cell rolling of neutrophils on P-selectin coated microchip; type: cell-based; details: concentration not given
T2 sequence (P16109 42-830): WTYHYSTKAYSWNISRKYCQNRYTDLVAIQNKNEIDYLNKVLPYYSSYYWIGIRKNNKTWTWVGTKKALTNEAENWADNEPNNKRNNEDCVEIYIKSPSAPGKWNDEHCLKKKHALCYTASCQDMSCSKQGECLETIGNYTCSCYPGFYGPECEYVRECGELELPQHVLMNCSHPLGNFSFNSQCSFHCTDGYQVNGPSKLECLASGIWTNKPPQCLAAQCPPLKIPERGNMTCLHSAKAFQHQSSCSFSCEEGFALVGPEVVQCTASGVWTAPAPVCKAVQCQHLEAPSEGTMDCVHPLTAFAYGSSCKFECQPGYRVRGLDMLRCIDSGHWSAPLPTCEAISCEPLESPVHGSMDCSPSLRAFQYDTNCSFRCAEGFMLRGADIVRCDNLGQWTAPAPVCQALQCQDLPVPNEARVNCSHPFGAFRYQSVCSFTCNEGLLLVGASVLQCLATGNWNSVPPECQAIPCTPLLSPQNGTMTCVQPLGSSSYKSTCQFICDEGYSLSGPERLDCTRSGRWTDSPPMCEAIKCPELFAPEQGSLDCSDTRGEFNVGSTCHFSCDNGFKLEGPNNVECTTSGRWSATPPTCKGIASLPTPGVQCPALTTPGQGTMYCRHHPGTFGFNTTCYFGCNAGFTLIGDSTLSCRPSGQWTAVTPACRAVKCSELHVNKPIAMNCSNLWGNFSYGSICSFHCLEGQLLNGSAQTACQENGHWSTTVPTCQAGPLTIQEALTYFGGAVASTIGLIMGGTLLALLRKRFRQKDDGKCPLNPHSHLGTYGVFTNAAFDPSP
Experimental: In preparation for cell rolling, the channels were coated with the desired selectin by methods similar to those set forth in Example VII.
To study cell rolling, two reservoirs leading to one channel were filled with cells. The contents of both the first and second reservoir (cells only) were drawn into the channel and cell rolling was observed.
The HCRIVa microchip was coated with 20 μg/ml P-selectin by methods similar to that described in Example VII and incubated for two hours. Isolated human neutrophils were moved through the rolling microchip with a flow rate of 10 μl/min. (approx. 800/cm shear rate=40 dynes/cm^2 shear force).

[6] = molecular target: T2, P-selectin; test: Cell rolling assay with undiluted human blood, P-selectin coated device; type: cell-based; details: heparinated whole human blood; HCRIVc device
Experimental: as §1, §2

[7] = test system: human lymphocytes; test: Calcium influx assay with lymphocyte inhibitor; type: cell-based
Experimental: The microfluidic device and human lymphocytes were prepared as described in Example III.
With reference to FIG. 8, 100 μM of verapamil, an inhibitor, was introduced into channel #1; buffer was introduced into channel #2; leukocytes were introduced into channel #3; and calcium activator A23187 was introduced into channel #4.
The device was run as described in Example III above. Verapamil was introduced to the lymphocytes at point “A” intersection of the device (FIG. 8). The lymphocytes were incubated with verapamil for four minutes while transported through the main channel to the mixing point “B”.

## CNc1ccc2oc(C[C@H]3O[C@@]4(CC[C@H]3C)O[C@H]([C@H](C)C(=O)c3ccc[nH]3)[C@H](C)C[C@H]4C)nc2c1C(=O)O [A23187, calcimycin]
[1]
  time at the mixing point until lymphocyte showed fluorescence caused by calcium influx: 4 s

## CCCCCCCCCCCCOS(=O)(=O)[O-].[Na+] [SDS, Sodium dodecyl sulfate]
[2]; 3 mM SDS in deionized water, PMT 2.5 mm downstream of mixing point, PCRD2 device
  scattered light signal from the cells: signal dropped
[2]; 3 mM SDS, COPI device, double-T region, 130 V/cm
  total time elapsed for lysis of the marked cells (three frames): 0.3 s
[2]; anionic detergent mixed with cell stream at an intersection
  lysis of erythrocytes (hemolysis) in a flowing stream: lysed cells sufficiently rapidly

## Fucoidine
[3]
  inhibition of leukocyte rolling in whole blood in the presence of E-selectin: took a longer time to inhibit rolling
[4]
  inhibition of rolling of the neutrophils in the presence of E-selectin: took a longer time to inhibit rolling
[5]
  inhibition of rolling of the neutrophils in the presence of P-selectin: took a longer time to inhibit rolling
[6]
  inhibition of leukocyte rolling in whole blood in the presence of P-selectin: took a longer time to inhibit rolling

## COc1ccc(CCN(C)CCCC(C#N)(c2ccc(OC)c(OC)c2)C(C)C)cc1OC (centres unmarked) [verapamil]
[7]; 100 μM, incubated four minutes, activator A23187
  activation in calcium flux: significant reduction
[7]; 100 μM, incubated four minutes, twenty individual lymphocytes
  fluorescence of inhibitor treated lymphocyte after activation with A23187: no fluorescence
[7]; lymphocytes incubated for 30 seconds in the mixing channel
  inhibition of calcium influx: no inhibition
